Experimental data as given in the RepoRT retention time repository (doi:10.1016/j.jchromb.2020.122105).

Experiments:
Conditions in all cases: stereoisomer not certain
[1] = RP, Waters CORTECS T3, 100 × 2.1 mm, 2.7 µm, 0.3 mL/min, estimated dead time 0.73 min; A: water + 0.1% formic acid, pH 3; B: methanol + 0.1% formic acid, pH 3; gradient (min/%B) 0/5 5/5 25/95 25.1/100 35/100 35.1/5 45/5
[2] = RP, Waters CORTECS T3, 100 × 2.1 mm, 2.7 µm, 0.2 mL/min, estimated dead time 1.1 min; A: water + 0.1% formic acid, pH 3; B: methanol + 0.1% formic acid, pH 3; gradient (min/%B) 0/0 1/0 6/5 30/100 35/100 35.1/0 40/0
[3] = RP, Waters CORTECS T3, 100 × 2.1 mm, 2.7 µm, 0.3 mL/min, estimated dead time 0.73 min; A: water + 0.1% formic acid, pH 3; B: methanol + 0.1% formic acid, pH 3; gradient (min/%B) 0/0 1/0 6/5 30/100 35/100 35.1/0 40/0
[4] = RP, Waters CORTECS T3, 100 × 2.1 mm, 2.7 µm, 0.3 mL/min, estimated dead time 0.73 min; A: water + 0.1% formic acid, pH 3; B: methanol + 0.1% formic acid, pH 3; gradient (min/%B) 0/0 5/0 25/100 30/100 30.1/0 35/0
[5] = RP, Thermo Scientific Hypercarb, 150 × 2.1 mm, 5 µm, 0.1 mL/min, estimated dead time 3.3 min; A: water + 0.1% formic acid, pH 3; B: methanol + 0.1% formic acid, pH 3; gradient (min/%B) 0/5 5/5 20/100 35/100 35.1/5 45/5
[6] = HILIC, Merck SeQuant ZIC-HILIC, 150 × 2.1 mm, 5 µm, 0.75 mL/min, estimated dead time 0.44 min; A: water + 10 mM ammonium formate, pH 6; B: 5% water + 95% acetonitrile + 10 mM ammonium formate, pH 6; gradient (min/%B) 0/95 5/95 20/57 25/57 30/95 40/95
[7] = RP, Waters CORTECS T3, 100 × 2.1 mm, 2.7 µm, 0.15 mL/min, estimated dead time 1.5 min; A: water + 0.1% formic acid, pH 3; B: methanol + 0.1% formic acid, pH 3; gradient (min/%B) 0/0 1/0 6/5 30/100 35/100 35.1/0 40/0
[8] = RP, Waters ACQUITY UPLC BEH C18, 100 × 2.1 mm, 1.7 µm, 0.1 mL/min, estimated dead time 2.2 min; A: water + 0.1% formic acid, pH 3; B: methanol + 0.1% formic acid, pH 3; gradient (min/%B) 0/5 5/5 25/95 25.1/100 35/100 35.1/5 45/5
[9] = RP, Waters ACQUITY UPLC BEH C18, 100 × 2.1 mm, 1.7 µm, 0.1 mL/min, estimated dead time 2.2 min; A: water + 0.1% formic acid, pH 3; B: methanol + 0.1% formic acid, pH 3; gradient (min/%B) 0/5 5/5 25/100 30/100 30.1/5 35/5
[10] = RP, Waters ACQUITY UPLC BEH C18, 100 × 2.1 mm, 1.7 µm, 0.2 mL/min, estimated dead time 1.1 min; A: water + 0.025% formic acid + 20 mM ammonium acetate + 0.055% ammonium hydroxide, pH 7; B: methanol; gradient (min/%B) 0/5 5/5 25/100 30/100 30.1/5 35/5
[11] = RP, Waters CORTECS T3, 100 × 2.1 mm, 2.7 µm, 0.3 mL/min, estimated dead time 0.73 min; A: water + 0.1% formic acid, pH 3; B: methanol + 0.1% formic acid, pH 3; gradient (min/%B) 0/5 5/5 25/100 30/100 30.1/5 35/5
[12] = HILIC, Waters XBridge BEH Amide, 100 × 2.1 mm, 2.5 µm, 0.5 mL/min, estimated dead time 0.44 min; A: water + 0.1% acetic acid + 10 mM ammonium acetate, pH 4; B: 5% water + 95% acetonitrile + 0.1% acetic acid + 10 mM ammonium acetate, pH 4; gradient (min/%B) 0/95 5/95 20/57 25/57 30/95 40/95
[13] = RP, Waters CORTECS T3, 100 × 2.1 mm, 2.7 µm, 0.2 mL/min, estimated dead time 1.1 min; A: water + 0.045% formic acid + 0.11% ammonium hydroxide, pH 7; B: methanol; gradient (min/%B) 0/5 5/5 25/95 25.1/100 35/100 35.1/5 45/5
[14] = HILIC, Merck SeQuant ZIC-HILIC, 150 × 2.1 mm, 5 µm, 0.75 mL/min, estimated dead time 0.44 min; A: water + 0.1% acetic acid + 10 mM ammonium acetate, pH 4; B: 5% water + 95% acetonitrile + 0.1% acetic acid + 10 mM ammonium acetate, pH 4; gradient (min/%B) 0/95 5/95 20/57 25/57 30/95 40/95
[15] = RP, Waters ACQUITY UPLC BEH C18, 100 × 2.1 mm, 1.7 µm, 0.2 mL/min, estimated dead time 1.1 min; A: water + 0.025% formic acid + 20 mM ammonium acetate + 0.055% ammonium hydroxide, pH 7; B: methanol; gradient (min/%B) 0/5 5/5 25/100 30/100 30.1/5 35/5; remark: listed apart in the source
[16] = RP, Waters CORTECS T3, 100 × 2.1 mm, 2.7 µm, 0.1 mL/min, estimated dead time 2.2 min; A: water + 0.1% formic acid, pH 3; B: methanol + 0.1% formic acid, pH 3; gradient (min/%B) 0/5 5/5 25/95 25.1/100 35/100 35.1/5 45/5
[17] = RP, Waters CORTECS T3, 100 × 2.1 mm, 2.7 µm, 0.1 mL/min, estimated dead time 2.2 min; A: water + 0.1% formic acid, pH 3; B: methanol + 0.1% formic acid, pH 3; gradient (min/%B) 0/0 1/0 6/5 30/100 35/100 35.1/0 40/0
[18] = RP, Waters CORTECS T3, 100 × 2.1 mm, 2.7 µm, 0.25 mL/min, estimated dead time 0.88 min; A: water + 0.1% formic acid, pH 3; B: methanol + 0.1% formic acid, pH 3; gradient (min/%B) 0/0 1/0 6/5 30/100 35/100 35.1/0 40/0
[19] = RP, Waters ACQUITY UPLC BEH C18, 100 × 2.1 mm, 1.7 µm, 0.1 mL/min, estimated dead time 2.2 min; A: water + 0.045% formic acid + 0.11% ammonium hydroxide, pH 7; B: methanol; gradient (min/%B) 0/5 5/5 25/95 25.1/100 35/100 35.1/5 45/5
[20] = RP, Waters CORTECS T3, 100 × 2.1 mm, 2.7 µm, 0.2 mL/min, estimated dead time 1.1 min; A: water + 0.1% formic acid, pH 3; B: methanol + 0.1% formic acid, pH 3; gradient (min/%B) 0/5 5/5 25/95 25.1/100 35/100 35.1/5 45/5
[21] = RP, Waters CORTECS T3, 100 × 2.1 mm, 2.7 µm, 0.2 mL/min, estimated dead time 1.1 min; A: water + 0.1% formic acid, pH 3; B: methanol + 0.1% formic acid, pH 3; gradient (min/%B) 0/0 1/0 6/5 30/100 35/100 35.1/0 40/0; remark: listed apart in the source
[22] = RP, Waters CORTECS T3, 100 × 2.1 mm, 2.7 µm, 0.15 mL/min, estimated dead time 1.5 min; A: water + 0.1% formic acid, pH 3; B: methanol + 0.1% formic acid, pH 3; gradient (min/%B) 0/5 5/5 25/95 25.1/100 35/100 35.1/5 45/5
[23] = RP, Waters ACQUITY UPLC BEH C18, 100 × 2.1 mm, 1.7 µm, 0.1 mL/min, estimated dead time 2.2 min; A: water + 0.1% formic acid, pH 3; B: methanol + 0.1% formic acid, pH 3; gradient (min/%B) 0/5 5/5 25/95 25.1/100 35/100 35.1/5 45/5; remark: listed apart in the source
[24] = RP, Waters ACQUITY UPLC BEH C18, 100 × 2.1 mm, 1.7 µm, 0.2 mL/min, estimated dead time 1.1 min; A: water + 0.1% formic acid, pH 3; B: methanol + 0.1% formic acid, pH 3; gradient (min/%B) 0/5 5/5 25/100 30/100 30.1/5 35/5
[25] = RP, Waters CORTECS T3, 100 × 2.1 mm, 2.7 µm, 0.25 mL/min, estimated dead time 0.88 min; A: water + 0.1% formic acid, pH 3; B: methanol + 0.1% formic acid, pH 3; gradient (min/%B) 0/5 5/5 25/95 25.1/100 35/100 35.1/5 45/5
[26] = RP, Waters CORTECS T3, 100 × 2.1 mm, 2.7 µm, 0.3 mL/min, estimated dead time 0.73 min; A: water + 0.1% formic acid, pH 3; B: methanol + 0.1% formic acid, pH 3; gradient (min/%B) 0/0 5/0 25/100 30/100 30.1/0 35/0; remark: listed apart in the source
[27] = RP, Waters CORTECS T3, 100 × 2.1 mm, 2.7 µm, 0.3 mL/min, estimated dead time 0.73 min; A: water + 0.1% formic acid, pH 3; B: methanol + 0.1% formic acid, pH 3; gradient (min/%B) 0/0 1/0 6/5 30/100 35/100 35.1/0 40/0; remark: listed apart in the source

CC1NCCc2cc(O)c(O)cc21 (stereo unspecified) [1-METHYL-6,7-DIHYDROXY-1,2,3,4-TETRAHYDROISOQUINOLINE]
LC retention time [1]: 0.9 min | LC retention time [2]: 1.34 min | LC retention time [3]: 0.92 min | LC retention time [4]: 0.93 min | LC retention time [5]: 17.8 min | LC retention time [6]: 8.92 min | LC retention time [7]: 1.83 min | LC retention time [8]: 2.66 min | LC retention time [9]: 2.74 min

NC(=O)Cc1c[nH]c2ccccc12 [INDOLE-3-ACETAMIDE]
LC retention time [10]: 11.9 min | LC retention time [11]: 9.85 min | LC retention time [1]: 9.92 min | LC retention time [12]: 0.91 min | LC retention time [13]: 11.7 min | LC retention time [2]: 13 min | LC retention time [3]: 11.4 min | LC retention time [4]: 11.1 min | LC retention time [14]: 0.95 min | LC retention time [15]: 11.9 min | LC retention time [16]: 15.2 min | LC retention time [17]: 11.6 min | LC retention time [18]: 12.1 min | LC retention time [7]: 14.5 min | LC retention time [19]: 15.6 min | LC retention time [8]: 15.6 min | LC retention time [9]: 15.4 min

O=C([O-])Cc1c[nH]c2ccccc12 [INDOLE-3-ACETATE]
LC retention time [11]: 12.9 min | LC retention time [1]: 13.1 min | LC retention time [2]: 16.4 min | LC retention time [3]: 14.8 min | LC retention time [4]: 13.8 min | LC retention time [16]: 18.2 min | LC retention time [17]: 14.7 min | LC retention time [18]: 15.5 min | LC retention time [7]: 17.9 min | LC retention time [19]: 11.3 min | LC retention time [8]: 18.6 min | LC retention time [9]: 18.2 min

CCC(NC(=O)CCC(N)C(=O)O)C(=O)NCC(=O)O (stereo unspecified) [OPHTHALMIC ACID]
LC retention time [20]: 2.74 min | LC retention time [10]: 1.36 min | LC retention time [21]: 1.38 min | LC retention time [11]: 0.93 min | LC retention time [1]: 0.9 min | LC retention time [12]: 14.5 min | LC retention time [2]: 1.38 min | LC retention time [3]: 0.92 min | LC retention time [22]: 1.78 min | LC retention time [4]: 0.93 min | LC retention time [14]: 13.8 min | LC retention time [23]: 2.7 min | LC retention time [5]: 18.5 min | LC retention time [18]: 1.13 min | LC retention time [24]: 1.42 min | LC retention time [25]: 1.08 min | LC retention time [7]: 1.87 min | LC retention time [26]: 0.93 min | LC retention time [27]: 0.96 min | LC retention time [8]: 2.66 min | LC retention time [9]: 2.74 min

C=Cc1c(C)c2cc3[nH]c(cc4nc(cc5nc(cc1[nH]2)C(C)=C5CCC(=O)O)C(CCC(=O)O)=C4C)c(C)c3C=C [PROTOPORPHYRIN]
LC retention time [11]: 25.1 min | LC retention time [1]: 26.1 min | LC retention time [13]: 25.9 min | LC retention time [2]: 30.7 min | LC retention time [3]: 29.7 min | LC retention time [4]: 25.3 min | LC retention time [15]: 25.4 min | LC retention time [16]: 30.1 min | LC retention time [17]: 26.5 min | LC retention time [18]: 30.1 min | LC retention time [7]: 31.9 min | LC retention time [19]: 29.5 min | LC retention time [8]: 30.2 min | LC retention time [9]: 29.5 min

NC(=O)C1CCCN1C(=O)C(Cc1cnc[nH]1)NC(=O)C1CCC(=O)N1 (stereo unspecified) [THYROTROPIN RELEASING HORMONE]
LC retention time [20]: 2.67 min | LC retention time [1]: 0.9 min | LC retention time [2]: 1.34 min | LC retention time [3]: 0.92 min | LC retention time [4]: 0.89 min | LC retention time [15]: 7.17 min | LC retention time [23]: 2.7 min | LC retention time [5]: 15.7 min | LC retention time [18]: 1.09 min | LC retention time [24]: 1.38 min | LC retention time [7]: 1.83 min | LC retention time [8]: 2.66 min | LC retention time [9]: 2.74 min
